Assay results from patent publication US20250230154A1, “COMPOUND HAVING SHP2 PROTEIN DEGRADING ACTIVITY, AND MEDICAL USES THEREOF” (UBIX THERAPEUTICS, INC., priority 2021, published 2025).

Molecular target: T1, SHP2 protein (Homo sapiens, UniProt Q06124)
T1 sequence (Q06124 1-593): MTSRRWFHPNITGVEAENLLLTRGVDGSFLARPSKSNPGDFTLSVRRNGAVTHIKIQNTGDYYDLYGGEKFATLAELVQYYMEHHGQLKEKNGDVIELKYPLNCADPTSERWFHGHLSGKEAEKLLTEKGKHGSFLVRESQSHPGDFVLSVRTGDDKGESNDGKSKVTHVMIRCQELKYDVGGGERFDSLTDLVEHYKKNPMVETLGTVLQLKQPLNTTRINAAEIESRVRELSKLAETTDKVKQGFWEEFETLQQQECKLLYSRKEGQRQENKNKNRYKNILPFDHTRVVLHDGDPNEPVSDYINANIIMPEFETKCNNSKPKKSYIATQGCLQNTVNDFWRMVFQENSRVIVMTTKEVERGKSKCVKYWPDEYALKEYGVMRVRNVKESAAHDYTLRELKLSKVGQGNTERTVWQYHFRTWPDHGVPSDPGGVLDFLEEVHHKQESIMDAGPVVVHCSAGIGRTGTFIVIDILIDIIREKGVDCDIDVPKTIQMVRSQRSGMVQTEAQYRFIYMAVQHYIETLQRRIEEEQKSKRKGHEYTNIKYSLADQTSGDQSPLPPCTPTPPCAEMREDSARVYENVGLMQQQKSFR
Test: Measurement of SHP2 protein degradation in MV-4-11 cells (western blotting)
Format: cell-based
Design: endogenous in cells; host or cells: MV-4-11
Settings: MV-4-11 cells, 24 hours
Method in brief: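 SHP2 protein levels were assessed by western blotting in MV-4-11 cells after a 24 hour compound treatment. Lysates were sonicated, centrifuged, normalized by BCA assay at 562 nm, run on Bis-tris 4-12% gels, transferred to NC membrane, probed with anti-SHPTP2 (70 kDa) and anti-GAPDH (37 kDa) antibodies, and detected on LI-COR Odyssey.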

SMILES	SHP2 degradation (%) 10 nM [%]	SHP2 degradation (%) 100 nM [%]	SHP2 degradation (%) 1000 nM [%]
Cc1ncsc1-c1ccc(CNC(=O)[C@@H]2C[C@@H](O)CN2C(=O)[C@@H](NC(=O)C2(F)CC2)C(C)(C)C)c(OCCN2CCN(C(=O)CC(=O)Nc3cccc(Sc4cnc(N5CCC(C)(CN)CC5)cn4)c3Cl)CC2)c1 [Example 52, (2S,4R)—N-(2-(2-(4-(3-((3-((5-(4-(aminomethyl)-4-methylpiperidin-1-yl)pyrazin-2-yl)thio)-2-chlorophenyl)amino)-3-oxopropanoyl)piperazin-1-yl)ethoxy)-4-(4-methylthiazol-5-yl)benzyl)-1-((S)-2-(1-fluorocyclopropane-1-carboxamido)-3,3-dimethylbutanoyl)-4-hydroxypyrrolidine-2-carboxamide]	72	96	94.5
Cc1ncsc1-c1ccc(CNC(=O)[C@@H]2C[C@@H](O)CN2C(=O)[C@@H](NC(=O)C2(F)CC2)C(C)(C)C)c(OCCN2CCN(C(=O)C(C)C(=O)Nc3cccc(Sc4cnc(N5CCC(C)(CN)CC5)cn4)c3Cl)CC2)c1 (stereo partly drawn) [Example 58, (2S,4R)—N-(2-(2-(4-(3-((3-((5-(4-(aminomethyl)-4-methylpiperidin-1-yl)pyrazin-2-yl)thio)-2-chlorophenyl)amino)-2-methyl-3-oxopropanoyl)piperazin-1-yl)ethoxy)-4-(4-methylthiazol-5-yl)benzyl)-1-((S)-2-(1-fluorocyclopropane-1-carboxamido)-3,3-dimethylbutanoyl)-4-hydroxypyrrolidine-2-carboxamide]	90.0	99.9	
Cc1ncsc1-c1ccc(CNC(=O)[C@@H]2C[C@@H](O)CN2C(=O)[C@@H](NC(=O)C2(F)CC2)C(C)(C)C)c(OC2CC3(CCN(c4ccc(C(=O)Nc5cccc(Sc6cnc(N7CCC(C)(CN)CC7)cn6)c5Cl)nn4)CC3)C2)c1 [Example 88, N-(3-((5-(4-(aminomethyl)-4-methylpiperidin-1-yl)pyrazin-2-yl)thio)-2-chlorophenyl)-6-(2-(2-(((2S,4R)-1-((S)-2-(1-fluorocyclopropane-1-carboxamido)-3,3-dimethylbutanoyl)-4-hydroxypyrrolidine-2-carboxamido)methyl)-5-(4-methylthiazol-5-yl)phenoxy)-7-azaspiro[3.5]nonan-7-yl)pyridazine-3-carboxamide]	16.5	66.1	
Cc1ncsc1-c1ccc(CNC(=O)[C@@H]2C[C@@H](O)CN2C(=O)[C@@H](NC(=O)C2(F)CC2)C(C)(C)C)c(OCCN2CCN(C(=O)CC(=O)Nc3cccc(Sc4cnc(N5CCC(C)(CN)CC5)cn4)c3Cl)[C@H](C)C2)c1 [Example 62, (2S,4R)—N-(2-(2-((R)-4-(3-((3-((5-(4-(aminomethyl)-4-methylpiperidin-1-yl)pyrazin-2-yl)thio)-2-chlorophenyl)amino)-3-oxopropanoyl)-3-methylpiperazin-1-yl)ethoxy)-4-(4-methylthiazol-5-yl)benzyl)-1-((S)-2-(1-fluorocyclopropane-1-carboxamido)-3,3-dimethylbutanoyl)-4-hydroxypyrrolidine-2-carboxamide]	82.5	96	
Cc1ncsc1-c1ccc(CNC(=O)[C@@H]2C[C@@H](O)CN2C(=O)[C@@H](NC(=O)C2(F)CC2)C(C)(C)C)c(OCCC2CCN(CCC(=O)Nc3cccc(Sc4cnc(N5CCC(C)(CN)CC5)cn4)c3Cl)CC2)c1 [Example 74, (2S,4R)—N-(2-(2-(1-(3-((3-((5-(4-(aminomethyl)-4-methylpiperidin-1-yl)pyrazin-2-yl)thio)-2-chlorophenyl)amino)-3-oxopropyl)piperidin-4-yl)ethoxy)-4-(4-methylthiazol-5-yl)benzyl)-1-((S)-2-(1-fluorocyclopropane-1-carboxamido)-3,3-dimethylbutanoyl)-4-hydroxypyrrolidine-2-carboxamide]	29.0	80.5	94.5
Cc1ncsc1-c1ccc(CNC(=O)[C@@H]2C[C@@H](O)CN2C(=O)[C@@H](NC(=O)C2(F)CC2)C(C)(C)C)c(OCC2CCN(C(=O)CCC(=O)Nc3cccc(Sc4cnc(N5CCC(C)(CN)CC5)cn4)c3Cl)CC2)c1 [Example 44, (2S,4R)—N-(2-((1-(4-((3-((5-(4-(aminomethyl)-4-methylpiperidin-1-yl)pyrazin-2-yl)thio)-2-chlorophenyl)amino)-4-oxobutanoyl)piperidin-4-yl)methoxy)-4-(4-methylthiazol-5-yl)benzyl)-1-((S)-2-(1-fluorocyclopropane-1-carboxamido)-3,3-dimethylbutanoyl)-4-hydroxypyrrolidine-2-carboxamide]	71.5	95	95.5
Cc1ncsc1-c1ccc(CNC(=O)[C@@H]2C[C@@H](O)CN2C(=O)[C@@H](NC(=O)C2(F)CC2)C(C)(C)C)c(OCCCCN2CCN(CC(=O)Nc3cccc(Sc4cnc(N5CCC(C)(CN)CC5)cn4)c3Cl)C(=O)C2)c1 [Example 78, (2S,4R)—N-(2-(4-(4-(2-((3-((5-(4-(aminomethyl)-4-methylpiperidin-1-yl)pyrazin-2-yl)thio)-2-chlorophenyl)amino)-2-oxoethyl)-3-oxopiperazin-1-yl)butoxy)-4-(4-methylthiazol-5-yl)benzyl)-1-((S)-2-(1-fluorocyclopropane-1-carboxamido)-3,3-dimethylbutanoyl)-4-hydroxypyrrolidine-2-carboxamide]	86.6	99.5	
Cc1ncsc1-c1ccc(CNC(=O)[C@@H]2C[C@@H](O)CN2C(=O)[C@@H](NC(=O)C2(F)CC2)C(C)(C)C)c(OCCN2CCN(CC(=O)Nc3cccc(Sc4cnc(N5CCC(C)(CN)CC5)cn4)c3Cl)C(=O)C2)c1 [Example 76, (2S,4R)—N-(2-(2-(4-(2-((3-((5-(4-(aminomethyl)-4-methylpiperidin-1-yl)pyrazin-2-yl)thio)-2-chlorophenyl)amino)-2-oxoethyl)-3-oxopiperazin-1-yl)ethoxy)-4-(4-methylthiazol-5-yl)benzyl)-1-((S)-2-(1-fluorocyclopropane-1-carboxamido)-3,3-dimethylbutanoyl)-4-hydroxypyrrolidine-2-carboxamide]	94.2	99.5	
Cc1ncsc1-c1ccc(CNC(=O)[C@@H]2C[C@@H](O)CN2C(=O)[C@@H](NC(=O)C2CC2)C(C)(C)C)c(OCCN2CCN(CC(=O)Nc3cccc(Sc4cnc(N5CCC(C)(CN)CC5)cn4)c3Cl)C(=O)C2)c1 [Example 79, (2S,4R)—N-(2-(2-(4-(2-((3-((5-(4-(aminomethyl)-4-methylpiperidin-1-yl)pyrazin-2-yl)thio)-2-chlorophenyl)amino)-2-oxoethyl)-3-oxopiperazin-1-yl)ethoxy)-4-(4-methylthiazol-5-yl)benzyl)-1-((S)-2-(cyclopropanecarboxamido)-3,3-dimethylbutanoyl)-4-hydroxypyrrolidine-2-carboxamide]	78.4	98.6	
Cc1ncsc1-c1ccc(CNC(=O)[C@@H]2C[C@@H](O)CN2C(=O)[C@@H](NC(=O)C2(F)CC2)C(C)(C)C)c(OCCC2CCN(C(=O)CC(=O)Nc3cccc(Sc4cnc(N5CCC(C)(N)CC5)cn4)c3Cl)CC2)c1 [Example 34, (2S,4R)—N-(2-(2-(1-(3-((3-((5-(4-amino-4-methylpiperidin-1-yl)pyrazin-2-yl)thio)-2-chlorophenyl)amino)-3-oxopropanoyl)piperidin-4-yl)ethoxy)-4-(4-methylthiazol-5-yl)benzyl)-1-((S)-2-(1-fluorocyclopropane-1-carboxamido)-3,3-dimethylbutanoyl)-4-hydroxypyrrolidine-2-carboxamide]	77	93.5	94
Cc1ncsc1-c1ccc(CNC(=O)[C@@H]2C[C@@H](O)CN2C(=O)[C@@H](NC(=O)C2(F)CC2)C(C)(C)C)c(OCCCN2CCC(CC(=O)Nc3cccc(Sc4ncc(N5CCC(C)(CN)CC5)nc4N)c3Cl)CC2)c1 [Example 10, (2S,4R)—N-(2-(3-(4-(2-((3-((3-amino-5-(4-(aminomethyl)-4-methylpiperidin-1-yl)pyrazin-2-yl)thio)-2-chlorophenyl)amino)-2-oxoethyl)piperidin-1-yl)propoxy)-4-(4-methylthiazol-5-yl)benzyl)-1-((S)-2-(1-fluorocyclopropane-1-carboxamido)-3,3-dimethylbutanoyl)-4-hydroxypyrrolidine-2-carboxamide]	33.7	90.9	95.0
